Measured values taken from patent US9382209B2, “Polymorphic forms of ivabradine hydrochloride” (CADILA HEALTHCARE LIMITED, priority 2011, dated 2016).
Values belong to the compound of their own block, whether it stands above or below them.

Experiments:
[1] = Storage stability of crystalline forms at 40° C./75% RH (6 months stability results); type: physicochemical; conditions: for Impurity Profile (i) Tetrahydro benzazepine / Impurity Profile (ii) (S)-methyl amino Compd. / Impurity Profile (iii) Benzocylco butane Compd. / Impurity Profile (iv) Dimer Impurity: BDL = Below Detection Limit
Text: In another general aspect, the storage stable crystalline Form-II of ivabradine hydrochloride may be characterized by at least 6 months stability results as outline in Table-III which is representative for one of the batch.
In another general aspect, the storage stable crystalline Form III of ivabradine hydrochloride may be characterized by at least 6 months stability results as outline in Table-IV which is representative for one of the batch.

[2] = Storage stability of crystalline forms at 25° C./60% RH; type: physicochemical; conditions: storage for 6 months at 25° C. and a relative humidity of 60%
[3] = 1 Month, 40° C. ± 2° C./75% ± 5% RH
[4] = 1 Month, 40° C. ± 2° C./75% ± 5% RH, listed as Form-II, hydrochloride
[5] = 2 Months, 40° C. ± 2° C./75% ± 5% RH
[6] = 2 Months, 40° C. ± 2° C./75% ± 5% RH, listed as Form-II, hydrochloride
[7] = 3 Months, 40° C. ± 2° C./75% ± 5% RH
[8] = 3 Months, 40° C. ± 2° C./75% ± 5% RH, listed as Form-II, hydrochloride
[9] = 6 Months, 40° C. ± 2° C./75% ± 5% RH
[10] = Initial, specification Not more than 0.15
[11] = 1 Month, 40° C. ± 2° C./75% ± 5% RH, listed as Form-III, hydrochloride
[12] = 2 Months, 40° C. ± 2° C./75% ± 5% RH, listed as Form-III, hydrochloride
[13] = 3 Months, 40° C. ± 2° C./75% ± 5% RH, listed as Form-III, hydrochloride

Description [1, 3]: White | Water by KF (% w/w) [1, 3]: 2.0 % w/w | Impurity Profile (i) Tetrahydro benzazepine [1, 3]: BDL | Impurity Profile (ii) (S)-methyl amino Compd. [1, 3]: BDL | Impurity Profile (iii) Benzocylco butane Compd. [1, 3]: BDL | Impurity Profile (iv) Dimer Impurity [1, 3]: BDL | Impurity Profile (v) Single Ind. [1, 4]: 0.02 | Impurity Profile (vi) Total Imp. [1, 4]: 0.05 | Polymorph [1, 4]: Form-II | Description [1, 5]: White | Water by KF (% w/w) [1, 5]: 2.0 % w/w | Impurity Profile (i) Tetrahydro benzazepine [1, 5]: BDL | Impurity Profile (ii) (S)-methyl amino Compd. [1, 5]: BDL | Impurity Profile (iii) Benzocylco butane Compd. [1, 5]: BDL | Impurity Profile (iv) Dimer Impurity [1, 5]: BDL | Impurity Profile (v) Single Ind. [1, 6]: 0.02 | Impurity Profile (vi) Total Imp. [1, 6]: 0.03 | Polymorph [1, 6]: Form-II | Description [1, 7]: White | Impurity Profile (vi) Total Imp. [1, 7]: 0.08 | Water by KF (% w/w) [1, 7]: 2.1 % w/w | Impurity Profile (i) Tetrahydro benzazepine [1, 7]: BDL | Impurity Profile (ii) (S)-methyl amino Compd. [1, 7]: BDL | Impurity Profile (iii) Benzocylco butane Compd. [1, 7]: BDL | Impurity Profile (iv) Dimer Impurity [1, 7]: BDL | Impurity Profile (v) Single Ind. [1, 8]: 0.03 | Polymorph [1, 8]: Form-II | Description [1, 9]: White | Impurity Profile (v) Single Ind. [1, 9]: 0.03 | Impurity Profile (vi) Total Imp. [1, 9]: 0.09 | Water by KF (% w/w) [1, 9]: 2.0 % w/w | Impurity Profile (i) Tetrahydro benzazepine [1, 9]: BDL | Impurity Profile (ii) (S)-methyl amino Compd. [1, 9]: BDL | Impurity Profile (iii) Benzocylco butane Compd. [1, 9]: BDL | Impurity Profile (iv) Dimer Impurity [1, 9]: BDL | Polymorph ([1]; 6 Months, 40° C. ± 2° C./75% ± 5% RH, listed as Form-II, hydrochloride): Form-II | Impurity Profile (i) Tetrahydro benzazepine [1, 10]: BDL | Impurity Profile (ii) (S)-methyl amino Compd. [1, 10]: BDL | Impurity Profile (iii) Benzocylco butane Compd. [1, 10]: BDL | Impurity Profile (iv) Dimer Impurity [1, 10]: BDL | Polymorph ([1]; Initial, listed as Form-II, hydrochloride): Form-II | Impurity Profile (v) Single Ind. [1, 10]: 0.04 | Impurity Profile (vi) Total Imp. [1, 10]: 0.09 | Water by KF (% w/w) ([1]; Initial, specification Not more than 4.0%): 2.1 % w/w | Description ([1]; Initial, specification White to slightly yellow powder): White | quantity of crystalline β, δ, γ, or amorphous forms after storage ([1]; storage for 6 months at 40° C. and a relative humidity of 75%): no detectable quantity | quantity of crystalline β, δ, γ, or amorphous forms after storage [2]: no detectable quantity
SMILES: COc1cc2c(cc1OC)CC(=O)N(CCCN(C)C[C@H]1Cc3cc(OC)c(OC)cc31)CC2.Cl [Form II, 3-{3-{{[(7S)-3,4-dimethoxybicyclo[4.2.0]octa-1,3,5-trien-7-yl]methyl}(methyl)amino}-propyl}-7,8-dimethoxy-1,3,4,5-tetrahydro-2H-3-benzazepin-2-one hydrochloride]

Impurity Profile (v) Single Ind. [1, 11]: 0.04 | Impurity Profile (vi) Total Imp. [1, 11]: 0.07 | Polymorph [1, 11]: Form-III | Impurity Profile (v) Single Ind. [1, 12]: 0.03 | Impurity Profile (vi) Total Imp. [1, 12]: 0.06 | Polymorph [1, 12]: Form-III | Impurity Profile (v) Single Ind. [1, 13]: 0.04 | Polymorph [1, 13]: Form-III | Polymorph ([1]; 6 Months, 40° C. ± 2° C./75% ± 5% RH, listed as Form-III, hydrochloride): Form-III | Polymorph ([1]; Initial, listed as Form-III, hydrochloride): Form-III
SMILES: COc1cc2c(cc1OC)CC(=O)N(CCCN(C)C[C@H]1Cc3cc(OC)c(OC)cc31)CC2.Cl [Form III, 3-{3-{{[(7S)-3,4-dimethoxybicyclo[4.2.0]octa-1,3,5-trien-7-yl]methyl}(methyl)amino}-propyl}-7,8-dimethoxy-1,3,4,5-tetrahydro-2H-3-benzazepin-2-one hydrochloride]
